From article PMC6204527, “The Human Gut Colonizer Blastocystis Respires Using Complex II and Alternative Oxidase to Buffer Transient Oxygen Fluctuations in the Gut” (Frontiers in Cellular and Infection Microbiology, 2018)

What was measured:
[1] = biological target: T1, Blastocystis alternative oxidase (AOX) (Blastocystis hominis, UniProt D3GDI7); test: O2 uptake, Clark electrode, E. coli FN102 membranes; type: biochemical; conditions: 1 mM duroquinol; O2 co-substrate (250 μM); 50 mM Tris-HCl pH 7.5; 25 °C
T1 construct: full-length 304 aa (predicted 35 kDa), N-terminal 6xHis from pET-14b, expressed in heme-deficient E. coli FN102; E. coli membranes or whole cells
T1 sequence (D3GDI7 1-304): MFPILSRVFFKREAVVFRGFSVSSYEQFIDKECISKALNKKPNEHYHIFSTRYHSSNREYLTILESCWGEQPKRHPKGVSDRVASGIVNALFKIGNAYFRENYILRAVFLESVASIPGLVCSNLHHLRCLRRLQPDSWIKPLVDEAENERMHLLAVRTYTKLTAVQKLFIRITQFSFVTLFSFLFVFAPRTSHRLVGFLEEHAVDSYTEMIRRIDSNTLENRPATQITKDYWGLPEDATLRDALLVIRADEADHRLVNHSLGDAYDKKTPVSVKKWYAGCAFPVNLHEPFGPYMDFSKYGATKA

[2] = biological target: T1, Blastocystis alternative oxidase (AOX); test: as above; type: biochemical; conditions: 1 mM duroquinol; 50 mM Tris-HCl pH 7.5; 25 °C; antimycin A 1 μM also added

| Compound | O2 uptake, Clark electrode, E. coli FN102 membranes [1] | inhibition at 25 μM [2] |
| --- | --- | --- |
| Cc1c(C)c(O)c(C)c(C)c1O [DQH2, duroquinol] | Addition of duroquinol (Sigma), an AOX substrate, initiates oxygen consumption |  |
| CCCCCCCCOC(=O)c1cc(O)c(O)c(O)c1 [OG, octylgallate] |  | Oxygen consumption is almost completely abated by the addition of octylgallate, an AOX inhibitor |
